The assay has as its target PKM2 (Homo sapiens, UniProt P14618). The experiment in a line: PKM2 Assay (activation, LDH-coupled, absorbance at 340 nm). It is filed as biochemical. The procedure: • PKM2 stock enzyme solution was diluted in Reaction Buffer • 2 μL of compound was added into each well first, and then 180 μL of the Reaction Mix was added. • Reaction mixture with compound (without ADP) was incubated for 30 minutes at 4° C. • Plates were re-equilibrated to room temperature prior to adding 20 μL ADP to initiate the reaction. • Reaction progress was measured as changes in absorbance at 340 nm wavelength at room temperature (25° C.) Reaction Mix: PKM2 (50 ng/well), ADP (0.7 mM), PEP (0.15 mM), NADH (180 μM), LDH (2 units) in Reaction Buffer Reaction Buffer: 100 mM KCl, 50 mM Tris pH 7.5, 5 mM MgCl2, 1 mM DTT, 0.03% BSA.
Representative compounds of the invention were tested for their ability to activate PKM2 using the above assay. For simplicity, the activation activity of these compounds is represented as an AC50 in Tables 4 and 5 and throughout the application. […] “B” refers to an activator of PKM2 with an EC50 between 100 nM and 500 nM. “C” refers to an activator of PKM2 with an EC50 between 500 nM and 1000 nM. “D” refers to an activator of PKM2 with an EC50 between 1 μM and 20 μM. “E” refers a compound whose activation of PKM2 was not measurable. “N/C” refers to AC50 data not available.

Sequence of PKM2 (P14618 whole entry): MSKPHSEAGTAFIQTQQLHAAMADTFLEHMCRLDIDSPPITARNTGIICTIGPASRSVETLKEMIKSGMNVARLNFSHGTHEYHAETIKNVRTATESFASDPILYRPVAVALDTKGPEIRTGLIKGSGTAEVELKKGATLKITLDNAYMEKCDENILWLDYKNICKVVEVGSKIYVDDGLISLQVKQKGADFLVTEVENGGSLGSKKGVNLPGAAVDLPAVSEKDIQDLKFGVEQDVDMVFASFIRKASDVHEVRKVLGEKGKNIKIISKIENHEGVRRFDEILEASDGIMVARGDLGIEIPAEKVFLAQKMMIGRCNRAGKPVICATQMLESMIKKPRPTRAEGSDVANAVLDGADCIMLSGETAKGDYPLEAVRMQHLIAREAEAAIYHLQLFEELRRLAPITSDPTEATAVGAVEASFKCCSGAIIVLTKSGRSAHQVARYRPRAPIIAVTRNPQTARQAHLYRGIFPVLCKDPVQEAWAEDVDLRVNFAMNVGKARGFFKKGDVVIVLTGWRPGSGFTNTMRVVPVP

`O=C(c1ccc(NS(=O)(=O)c2cccc3cccnc23)c(OC(F)(F)F)c1)N1CCN(CC2CCOC2)CC1` (stereo not drawn) [Compound 302, N-(4-(4-((tetrahydrofuran-3-yl)methyl)piperazine-1-carbonyl)-2-(trifluoromethoxy)phenyl)quinoline-8-sulfonamide] displayed an AC50 (Table 5) of 500 to 1000 nM.
The molecule `O=C(Cc1ccccc1F)N1CCN(C(=O)c2ccc(NS(=O)(=O)c3cccc4cccnc34)c(OC(F)(F)F)c2)CC1` [Compound 361] gave a concentration at half-maximal activity (AC50) (Table 5) of 500 to 1000 nM.
As to `O=C(c1ccc(NS(=O)(=O)c2cccc3cccnc23)cc1)N1CC2CCC(C1)N2Cc1cc(F)cc(F)c1` [Compound 218, N-(4-(8-(3,5-difluorobenzyl)-3,8-diazabicyclo[3.2.1]octane-3-carbonyl)phenyl)quinoline-8-sulfonamide], the AC50 (Table 4) fell in the range of 100 to 500 nM.
As for `O=C(c1ccc(NS(=O)(=O)c2cccc3cccnc23)cc1Cl)N1CCN(CC2CCOC2)CC1` (stereo not drawn) [Compound 429, N-(3-chloro-4-(4-((tetrahydrofuran-3-yl)methyl)piperazine-1-carbonyl)phenyl)quinoline-8-sulfonamide], the AC50 (Table 5) lay in the range of 100 to 500 nM.
Molecule `O=C(c1ccc(NS(=O)(=O)c2cccc3cccnc23)c(OC(F)(F)F)c1)N1CCN(C(=O)c2ccccc2F)CC1` [Compound 360] returned an AC50 (Table 5) of 100 to 500 nM.
On the same count and under the same terms, for `CC(C)(c1cccc(F)c1)N1CCN(C(=O)c2ccc(NS(=O)(=O)c3cccc4cccnc34)cc2)CC1` [Compound 405] the value was under 100 nM.
In the case of `C[C@H]1CN(Cc2c(F)cc(F)cc2F)CCN1C(=O)c1ccc(NS(=O)(=O)c2cccc3cccnc23)cc1Cl` [Compound 188, (S)—N-(3-chloro-4-(2-methyl-4-(2,4,6-trifluorobenzyl)piperazine-1-carbonyl)phenyl)quinoline-8-sulfonamide], the AC50 (Table 4) lay within 500 to 1000 nM.
For the setting “Table 5”, `O=C(c1ccc(NS(=O)(=O)c2cccc3cccnc23)cc1)N1CCN(C(=O)C2CCCO2)CC1` (stereo not drawn) [Compound 443, N-(4-(4-(tetrahydrofuran-2-carbonyl)piperazine-1-carbonyl)phenyl)quinoline-8-sulfonamide] displayed an AC50 of 500 to 1000 nM.
The molecule `COc1cc(C(=O)N2CCN(C3(c4ccc(F)cc4)CC3)CC2)ccc1NS(=O)(=O)c1cccc2cccnc12` [Compound 400, N-(4-(4-(1-(4-fluorophenyl)cyclopropyl)piperazine-1-carbonyl)-2-methoxyphenyl)quinoline-8-sulfonamide] gave a concentration at half-maximal activity (AC50) (Table 5) of under 100 nM.
Same read-out and setting: the value for `O=C(c1ccc(NS(=O)(=O)c2cccc3cccnc23)cn1)N1CCN(CC2CC2)CC1` [Compound 415, N-(6-(4-(cyclopropylmethyl)piperazine-1-carbonyl)pyridin-3-yl)quinoline-8-sulfonamide] was 100 to 500 nM.
`O=C(c1ccc(NS(=O)(=O)c2cccc3cccnc23)cc1Cl)N1CCN(CC2CC2)CC1` [Compound 427, N-(3-chloro-4-(4-(cyclopropylmethyl)piperazine-1-carbonyl)phenyl)quinoline-8-sulfonamide] returned an AC50 (Table 5) of under 100 nM.
Take `O=C(c1ccc(NS(=O)(=O)c2cccc3cccnc23)cc1)N1CCN(Cc2cc[nH]n2)CC1` [Compound 384]: the AC50 (Table 5) was under 100 nM.
The molecule `CC(c1cc(F)c(F)c(F)c1)N1CCN(C(=O)c2ccc(NS(=O)(=O)c3cccc4cccnc34)cc2)[C@H](C)C1` (stereo partly drawn) [Compound 158, N-(4-((2R)-2-methyl-4-(1-(3,4,5-trifluorophenyl)ethyl)piperazine-1-carbonyl)phenyl)quinoline-8-sulfonamide] returned an AC50 (Table 4) of 100 to 500 nM.
In turn, `O=C(c1ccc(NS(=O)(=O)c2cccc3cccnc23)c(OC(F)(F)F)c1)N1CCN(CC2CC2)CC1` [Compound 301, N-(4-(4-(cyclopropylmethyl)piperazine-1-carbonyl)-2-(trifluoromethoxy)phenyl)quinoline-8-sulfonamide] returned a half-maximal activity concentration (AC50) (Table 5) of 100 to 500 nM.
Same read-out and setting: the value for `O=C(O[C@H]1CCOC1)N1CCN(C(=O)c2ccc(NS(=O)(=O)c3cccc4cccnc34)c(OC(F)(F)F)c2)CC1` [Compound 343, (S)-Tetrahydrofuran-3-yl-4-(4-(quinoline-8-sulfonamido)-3-(trifluoromethoxy)benzoyl)piperazine-1-carboxylate] was 1000 to 20000 nM.

The AC50 is the concentration giving half of the maximal activity seen. A low value points to greater potency.

For the origin of these results see US8889667B2 (Agios Pharmaceuticals, Inc, priority 2010, dated 2014).
